# Measurements: paper PMC3179935, “Gallus gallus NEU3 sialidase as model to study protein evolution mechanism based on rapid evolving loops” (BMC Biochemistry, 2011)
# Biological target: T1, Mm NEU3 (Mm NEU3-HA) (Mus musculus, UniProt Q9JMH7)
# T1 construct: HA tag, pcDNAI, transiently expressed in COS7, total cell lysate
# T1 sequence (Q9JMH7 1-418): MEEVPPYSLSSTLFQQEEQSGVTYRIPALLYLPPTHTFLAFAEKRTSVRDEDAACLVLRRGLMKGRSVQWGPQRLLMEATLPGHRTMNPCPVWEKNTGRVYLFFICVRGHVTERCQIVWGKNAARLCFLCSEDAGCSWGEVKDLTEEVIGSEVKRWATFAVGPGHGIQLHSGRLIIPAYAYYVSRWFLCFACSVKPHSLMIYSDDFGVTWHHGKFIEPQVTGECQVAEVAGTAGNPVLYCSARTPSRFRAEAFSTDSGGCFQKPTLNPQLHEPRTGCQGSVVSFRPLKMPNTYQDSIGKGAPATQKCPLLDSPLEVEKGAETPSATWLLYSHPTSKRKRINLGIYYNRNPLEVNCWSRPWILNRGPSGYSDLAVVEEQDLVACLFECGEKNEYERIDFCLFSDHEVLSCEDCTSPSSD
# Test: sialidase activity in transfected COS7 lysate
# Assay type: biochemical
# Details: positive control; pH range 2.5-5.5; 37 °C
smiles,measurement,value
CC(=O)N[C@H]1[C@H]([C@H](O)[C@H](O)CO)O[C@@](Oc2ccc3c(C)cc(=O)oc3c2)(C(=O)O)C[C@@H]1O [4-MU-NeuAc],sialidase activity in transfected COS7 lysate,pcDNAI-Mm NEU3-HA transfected cells were used as control
